Laboratory results taken from US5756527A, “Imidazole derivatives useful as modulators of multi drug resistances” (Ontogen Corporation, priority 1997, dated 1998).

Assays:
CEM/VLB1000 [1] = experiment: [3H]-vinblastine (VLB) accumulation assay; format: cell-based; conditions: midpoint of minimum and maximum increase in accumulation of 3H-vinblastine (275 nM), 3 hours at 37° C.
Method: ^3 H-vinblastine accumulation was also measured in the CEM/VLB1000 cell line. Corning Easy-Wash 96 well plates were pretreated with PBS and 1% BSA for 60 minutes and then removed. CEM/VLB1000 cells were seeded at 2×10^5, 40 μL volume. Plates were incubated at 37° C. for 30-60 minutes prior to use. The reference reversing agent, verapamil, or the compound of the present invention was added to the well followed by addition of media containing ^3 H-vinblastine (final concentration=275nM). Plates were allowed to incubate for 3 hours at 37° C. Cells were harvested onto pretreated Wallace filtermats A (pretreated with 0.1% polyethyleneimine) using a TomTek harvester-96. After filtering, the filtermats were allowed to dry completely. Meltix B scintillant was then added to the filtermats. The filters were then placed in a 90° C. oven for approximately 3-5 minutes and then removed. Scintillant was allowed to solidify on the filtermats. Filtermats were then placed in sample bags and read on a Wallace BetaPlate scintillation counter. The effects of compounds of the present invention in the cytotoxicity potentiation assays and vinblastine (VLB) accumulation assay are given in the Table below:
^2 Values presented are the midpoint (EC50) of the minimum and
maximum increase in accumulation of ^3 Hvinblastine caused by the
specific compound of the present invention.

CEM/VLB1000 [2] = experiment: Cytotoxicity potentiation (alamar blue) of vinblastine in multidrug-resistant cells; format: cell-based; conditions: midpoint of minimum and maximum cytotoxicity induced by 3-5 μg/mL vinblastine and compound, 48 h
Method: Multidrug-resistant cell lines are easily obtainable for in vitro determination of drug sensitization by compounds of the present invention. In vitro potentiation of antineoplastic cytotoxicity by the imidazole derivatives of the present invention was measured in both CEM/VLB1000 and SK/VLB1000 cell lines. The multidrug resistant cell lines were obtained from Dr. Victor Ling, Ontario Cancer Institute, Toronto, Canada. The CEM/VLB 1000 cell line was maintained as a suspension in minimum essential medium supplemented with 10% fetal bovine serum in a humidied atmosphere of 95% air and 5% CO2 while the SK/VLB 1000 cell line was maintained as adherent cells using the identical medium conditions as the CEM cells. The CEM/VLB 1000 cells were seeded at a density of 5×10^4 cells/well in a 96 well microtiter plate while the SK/VLB 1000 cell line was seeded at a density of 2,500 cells/well after trypsinization. Vinblastine (5 μg/mL, for the CEM cells) or Taxol (3 μg/mL, for the SK cells) and compound (0.01 to 50 μM) were added directly to the wells. After an incubation of 48 hours in presence of drug, alamar blue (B. Page et al., Int. J. Oncol. 3: 473-476, 1993) was added (10 μL to the 200 μL cell suspension) for a period of 24 hours after which the fluorescence (excitation=530 nm, emission=590 nm) was read for each well using a "CytoFluor" microtiter fluorometer plate reader. This assay measures the effective concentration of compound necessary to enhance the cytotoxicity (EC50) of vinblastine in the MDR cell line.
^1 Values presented are the midpoint (EC50) of the minimum and
maximum cytotoxicity induced by 3-5 μg/mL vinblastine and the specific
compound of the present invention.

SMILES | EC50 (CEM/VLB1000 [1]) | EC50 (CEM/VLB1000 [2])
CC(C)OC(=O)/C=C/c1ccc(-c2nc(-c3ccc(N(C)C)cc3)c(-c3ccc(N(C)C)cc3)[nH]2)cc1 [Example 38, 2-[4-(trans-i-propylpropenoate)phenyl]-4,5-bis[(4-N,N-dimethylamino)phenyl]imidazole] | 2.4 µM | 0.138 µM
CN(C)c1ccc(-c2nc(-c3ccc(/C=C/C(=O)OC(C)(C)C)cc3)[nH]c2-c2ccc(N(C)C)cc2)cc1 [Example 39, 2-[4-(trans-t-butylpropenoate)phenyl]-4,5-bis[(4-N,N-dimethylamino)phenyl] imidazole] | 4.5 µM | 0.59 µM
CCOCCCc1ccc(-c2nc(-c3ccc(N(C)C)cc3)c(-c3ccc(N(C)C)cc3)[nH]2)cc1 [Example 69, 2-[4-(3-ethoxypropyl)phenyl]-4,5-bis[(4-N,N-dimethylamino)phenyl] imidazole] |  | 0.21 µM
CCCCOc1ccc(-c2nc(-c3ccc(N(C)C)cc3)c(-c3ccc(N(C)C)cc3)[nH]2)cc1 [Example 70, 2-[4-butyloxyphenyl]-4,5-bis[(4-N,N-dimethylamino)phenyl] imidazole] |  | 0.43 µM
COCCOc1ccc(-c2nc(-c3ccc(N(C)C)cc3)c(-c3ccc(N(C)C)cc3)[nH]2)cc1 [Example 71, 2-[4-(2-methoxyethoxy)phenyl]-4,5-bis[(4-N,N-dimethylamino)phenyl] imidazole] |  | 0.17 µM
COCCOc1ccc(-c2nc(-c3ccc(N(C)C)cc3)c(-c3ccc(N(C)C)cc3)[nH]2)cc1OC [Example 72, 2-[3-methoxy-4-(2-methoxyethoxy)-phenyl]-4,5-bis[(4-N,N-dimethylamino)phenyl] imidazole] |  | 0.16 µM

The next lines start with results.

EC50 (CEM/VLB1000 [1]) | SMILES | EC50 (CEM/VLB1000 [2])
1.1 µM | CCN(CC)c1ccc(-c2[nH]c(-c3ccc(/C=C/C(=O)OC)cc3)nc2-c2ccc(NC)cc2)cc1 [Example 40, 2-[4-(trans-methylpropenoate)phenyl]-4-[(4-N,N-diethylamino)phenyl]-5-[(4-N-methylamino)phenyl] imidazole] | 0.226 µM
6 µM | CCN(CC)c1ccc(-c2nc(-c3ccc(/C=C/C(=O)OC(C)C)cc3)[nH]c2-c2ccc(NC)cc2)cc1 [Example 41, 2-[4-(trans-i-propylpropenoate)phenyl]-4-[(4-N,N-diethylamino)phenyl]-5-[(4-N-methylamino)phenyl] imidazole] | 0.42 µM
1.1 µM | CNc1ccc(-c2[nH]c(-c3ccc(/C=C/C(=O)OC)cc3)nc2-c2ccc(N(C)C)cc2)cc1 [Example 42, 2-[4-(trans-methylpropenoate)phenyl]-4-[(4-N,N-dimethylamino)phenyl]-5-[(4-N-methylamino)phenyl] imidazole] | 0.17 µM
2.3 µM | CCCN(C)c1ccc(-c2nc(-c3ccc(/C=C/C(=O)OC)cc3)[nH]c2-c2ccc(NC)cc2)cc1 [Example 43, 2-[4-(trans-methylpropenoate)phenyl]-4-[(4-N-methyl-N-propylamino)phenyl]-5-[(4-N-methylamino)phenyl] imidazole] | 0.148 µM
1.4 µM | CCCN(CCC)c1ccc(-c2[nH]c(-c3ccc(/C=C/C(=O)OC)cc3)nc2-c2ccc(NC)cc2)cc1 [Example 44, 2-[4-(trans-methylpropenoate)phenyl]-4-[(4-N,N-dipropylamino)phenyl]-5-[(4-N-methylamino)phenyl] imidazole] | 0.165 µM
10 µM | CCCCN(CCCC)c1ccc(-c2[nH]c(-c3ccc(/C=C/C(=O)OC)cc3)nc2-c2ccc(NC)cc2)cc1 [Example 45, 2-[4-(trans-methylpropenoate)phenyl]-4-[(4-N,N-dibutylamino)phenyl]-5-[(4-N-methylamino)phenyl] imidazole] | 1.9 µM
1.4 µM | CNc1ccc(-c2nc(-c3ccc(/C=C/C(=O)OC)cc3)[nH]c2-c2ccc(NC)cc2)cc1 [Example 46, 2-[4-(trans-methylpropenoate)phenyl]-4,5-bis(4-N-methylaminophenyl) imidazole] | 0.203 µM
